From ChEMBL document CHEMBL1142734, “Biological properties of D- and L-1-deoxyazasugars” (J Med Chem, 2005)

Assays:
[1] = molecular target: T1, Tissue alpha-L-fucosidase (Homo sapiens) (UniProt P04066); details: 1000 uM
T1 sequence (whole entry): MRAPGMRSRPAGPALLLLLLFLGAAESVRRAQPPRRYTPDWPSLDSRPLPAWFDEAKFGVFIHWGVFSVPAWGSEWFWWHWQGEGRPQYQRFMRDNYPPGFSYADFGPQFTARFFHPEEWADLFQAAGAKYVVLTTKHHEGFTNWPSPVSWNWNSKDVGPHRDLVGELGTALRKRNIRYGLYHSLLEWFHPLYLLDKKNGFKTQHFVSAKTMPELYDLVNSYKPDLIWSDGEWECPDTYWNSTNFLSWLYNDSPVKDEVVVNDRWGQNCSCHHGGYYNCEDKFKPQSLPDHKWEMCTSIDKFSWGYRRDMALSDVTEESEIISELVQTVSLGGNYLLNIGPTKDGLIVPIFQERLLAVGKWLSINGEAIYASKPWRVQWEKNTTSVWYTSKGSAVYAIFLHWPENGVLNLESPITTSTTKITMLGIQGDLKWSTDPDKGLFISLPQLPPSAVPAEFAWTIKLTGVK

[2] = molecular target: T2, Lysosomal alpha-mannosidase (Homo sapiens) (UniProt O00754); assay: Percent inhibition of human alpha-mannosidase at 1000 uM
T2 sequence (whole entry): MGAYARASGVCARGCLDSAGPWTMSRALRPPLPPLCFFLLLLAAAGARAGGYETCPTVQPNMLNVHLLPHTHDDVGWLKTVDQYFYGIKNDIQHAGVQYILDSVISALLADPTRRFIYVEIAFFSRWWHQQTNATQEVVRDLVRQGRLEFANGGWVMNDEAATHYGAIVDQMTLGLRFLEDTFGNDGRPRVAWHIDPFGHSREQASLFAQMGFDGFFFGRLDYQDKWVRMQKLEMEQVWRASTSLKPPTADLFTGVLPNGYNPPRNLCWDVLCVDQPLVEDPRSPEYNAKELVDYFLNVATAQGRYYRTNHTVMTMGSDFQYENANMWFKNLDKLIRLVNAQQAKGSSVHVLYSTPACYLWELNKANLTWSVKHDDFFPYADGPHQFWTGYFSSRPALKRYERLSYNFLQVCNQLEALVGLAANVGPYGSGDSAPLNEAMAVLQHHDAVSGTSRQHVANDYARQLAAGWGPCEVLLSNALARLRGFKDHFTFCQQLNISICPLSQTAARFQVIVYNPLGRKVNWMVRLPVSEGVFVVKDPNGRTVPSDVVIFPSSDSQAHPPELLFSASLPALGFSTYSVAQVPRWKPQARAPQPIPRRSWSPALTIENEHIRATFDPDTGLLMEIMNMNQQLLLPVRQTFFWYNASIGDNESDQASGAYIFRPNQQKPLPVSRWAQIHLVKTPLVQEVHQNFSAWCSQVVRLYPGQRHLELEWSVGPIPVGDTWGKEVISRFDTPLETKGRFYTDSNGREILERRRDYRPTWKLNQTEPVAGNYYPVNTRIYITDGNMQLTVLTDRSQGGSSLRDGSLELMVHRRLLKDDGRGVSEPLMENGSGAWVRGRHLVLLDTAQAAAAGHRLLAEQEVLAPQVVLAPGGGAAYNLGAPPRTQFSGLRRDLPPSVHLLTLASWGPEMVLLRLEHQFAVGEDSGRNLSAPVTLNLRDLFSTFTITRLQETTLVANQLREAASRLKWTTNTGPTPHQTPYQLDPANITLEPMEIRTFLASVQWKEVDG

[3] = molecular target: Maltase-glucoamylase (Homo sapiens) (UniProt O43451); details: 1000 uM
[4] = molecular target: T3, Alpha-galactosidase C (Aspergillus niger) (UniProt Q9UUZ4); assay: Percent inhibition of alpha-galactosidase of Aspergillus niger at 1000 uM
T3 sequence (whole entry): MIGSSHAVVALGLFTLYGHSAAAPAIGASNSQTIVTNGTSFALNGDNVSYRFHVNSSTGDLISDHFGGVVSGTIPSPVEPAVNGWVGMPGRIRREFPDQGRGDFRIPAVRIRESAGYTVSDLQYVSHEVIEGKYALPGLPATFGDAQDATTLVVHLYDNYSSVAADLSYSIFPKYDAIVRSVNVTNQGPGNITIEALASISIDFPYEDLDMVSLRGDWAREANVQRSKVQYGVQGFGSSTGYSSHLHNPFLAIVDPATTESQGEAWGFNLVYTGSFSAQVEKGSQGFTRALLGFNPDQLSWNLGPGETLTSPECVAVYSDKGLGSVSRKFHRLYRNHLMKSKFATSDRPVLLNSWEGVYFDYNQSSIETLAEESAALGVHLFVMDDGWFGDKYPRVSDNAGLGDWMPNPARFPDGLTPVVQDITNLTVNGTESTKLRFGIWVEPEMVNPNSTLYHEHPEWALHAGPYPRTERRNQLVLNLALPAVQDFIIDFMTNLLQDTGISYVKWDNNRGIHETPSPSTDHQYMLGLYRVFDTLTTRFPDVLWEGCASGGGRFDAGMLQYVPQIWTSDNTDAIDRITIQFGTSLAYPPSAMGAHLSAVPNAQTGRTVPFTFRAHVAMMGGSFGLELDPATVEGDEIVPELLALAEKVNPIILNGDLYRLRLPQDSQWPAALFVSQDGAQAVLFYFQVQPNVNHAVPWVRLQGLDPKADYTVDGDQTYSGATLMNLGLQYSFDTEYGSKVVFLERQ

[5] = molecular target: T4, Beta-galactosidase (Bos taurus) (UniProt Q58D55); assay: Percent inhibition of beta-galactosidase of bovine liver at 1000 uM
T4 sequence (whole entry): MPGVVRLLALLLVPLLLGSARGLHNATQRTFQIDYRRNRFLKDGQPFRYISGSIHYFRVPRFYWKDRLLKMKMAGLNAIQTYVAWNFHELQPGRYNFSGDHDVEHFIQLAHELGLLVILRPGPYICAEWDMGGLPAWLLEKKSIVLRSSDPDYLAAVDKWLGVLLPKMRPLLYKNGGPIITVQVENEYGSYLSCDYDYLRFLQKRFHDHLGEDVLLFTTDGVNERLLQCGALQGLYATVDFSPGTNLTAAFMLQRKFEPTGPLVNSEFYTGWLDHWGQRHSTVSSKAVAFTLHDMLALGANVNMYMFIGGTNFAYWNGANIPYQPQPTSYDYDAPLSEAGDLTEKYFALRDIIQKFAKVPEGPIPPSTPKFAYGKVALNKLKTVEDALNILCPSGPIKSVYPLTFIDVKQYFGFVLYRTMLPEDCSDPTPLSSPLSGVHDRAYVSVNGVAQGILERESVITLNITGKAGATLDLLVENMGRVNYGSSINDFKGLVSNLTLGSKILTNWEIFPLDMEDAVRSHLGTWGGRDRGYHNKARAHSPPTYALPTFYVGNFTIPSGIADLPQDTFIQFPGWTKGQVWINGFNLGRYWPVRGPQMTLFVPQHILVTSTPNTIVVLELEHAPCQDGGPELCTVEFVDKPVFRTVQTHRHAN

Measured: inhibition

Maltase-glucoamylase (Homo sapiens), sequence (O43451 whole entry, looked up): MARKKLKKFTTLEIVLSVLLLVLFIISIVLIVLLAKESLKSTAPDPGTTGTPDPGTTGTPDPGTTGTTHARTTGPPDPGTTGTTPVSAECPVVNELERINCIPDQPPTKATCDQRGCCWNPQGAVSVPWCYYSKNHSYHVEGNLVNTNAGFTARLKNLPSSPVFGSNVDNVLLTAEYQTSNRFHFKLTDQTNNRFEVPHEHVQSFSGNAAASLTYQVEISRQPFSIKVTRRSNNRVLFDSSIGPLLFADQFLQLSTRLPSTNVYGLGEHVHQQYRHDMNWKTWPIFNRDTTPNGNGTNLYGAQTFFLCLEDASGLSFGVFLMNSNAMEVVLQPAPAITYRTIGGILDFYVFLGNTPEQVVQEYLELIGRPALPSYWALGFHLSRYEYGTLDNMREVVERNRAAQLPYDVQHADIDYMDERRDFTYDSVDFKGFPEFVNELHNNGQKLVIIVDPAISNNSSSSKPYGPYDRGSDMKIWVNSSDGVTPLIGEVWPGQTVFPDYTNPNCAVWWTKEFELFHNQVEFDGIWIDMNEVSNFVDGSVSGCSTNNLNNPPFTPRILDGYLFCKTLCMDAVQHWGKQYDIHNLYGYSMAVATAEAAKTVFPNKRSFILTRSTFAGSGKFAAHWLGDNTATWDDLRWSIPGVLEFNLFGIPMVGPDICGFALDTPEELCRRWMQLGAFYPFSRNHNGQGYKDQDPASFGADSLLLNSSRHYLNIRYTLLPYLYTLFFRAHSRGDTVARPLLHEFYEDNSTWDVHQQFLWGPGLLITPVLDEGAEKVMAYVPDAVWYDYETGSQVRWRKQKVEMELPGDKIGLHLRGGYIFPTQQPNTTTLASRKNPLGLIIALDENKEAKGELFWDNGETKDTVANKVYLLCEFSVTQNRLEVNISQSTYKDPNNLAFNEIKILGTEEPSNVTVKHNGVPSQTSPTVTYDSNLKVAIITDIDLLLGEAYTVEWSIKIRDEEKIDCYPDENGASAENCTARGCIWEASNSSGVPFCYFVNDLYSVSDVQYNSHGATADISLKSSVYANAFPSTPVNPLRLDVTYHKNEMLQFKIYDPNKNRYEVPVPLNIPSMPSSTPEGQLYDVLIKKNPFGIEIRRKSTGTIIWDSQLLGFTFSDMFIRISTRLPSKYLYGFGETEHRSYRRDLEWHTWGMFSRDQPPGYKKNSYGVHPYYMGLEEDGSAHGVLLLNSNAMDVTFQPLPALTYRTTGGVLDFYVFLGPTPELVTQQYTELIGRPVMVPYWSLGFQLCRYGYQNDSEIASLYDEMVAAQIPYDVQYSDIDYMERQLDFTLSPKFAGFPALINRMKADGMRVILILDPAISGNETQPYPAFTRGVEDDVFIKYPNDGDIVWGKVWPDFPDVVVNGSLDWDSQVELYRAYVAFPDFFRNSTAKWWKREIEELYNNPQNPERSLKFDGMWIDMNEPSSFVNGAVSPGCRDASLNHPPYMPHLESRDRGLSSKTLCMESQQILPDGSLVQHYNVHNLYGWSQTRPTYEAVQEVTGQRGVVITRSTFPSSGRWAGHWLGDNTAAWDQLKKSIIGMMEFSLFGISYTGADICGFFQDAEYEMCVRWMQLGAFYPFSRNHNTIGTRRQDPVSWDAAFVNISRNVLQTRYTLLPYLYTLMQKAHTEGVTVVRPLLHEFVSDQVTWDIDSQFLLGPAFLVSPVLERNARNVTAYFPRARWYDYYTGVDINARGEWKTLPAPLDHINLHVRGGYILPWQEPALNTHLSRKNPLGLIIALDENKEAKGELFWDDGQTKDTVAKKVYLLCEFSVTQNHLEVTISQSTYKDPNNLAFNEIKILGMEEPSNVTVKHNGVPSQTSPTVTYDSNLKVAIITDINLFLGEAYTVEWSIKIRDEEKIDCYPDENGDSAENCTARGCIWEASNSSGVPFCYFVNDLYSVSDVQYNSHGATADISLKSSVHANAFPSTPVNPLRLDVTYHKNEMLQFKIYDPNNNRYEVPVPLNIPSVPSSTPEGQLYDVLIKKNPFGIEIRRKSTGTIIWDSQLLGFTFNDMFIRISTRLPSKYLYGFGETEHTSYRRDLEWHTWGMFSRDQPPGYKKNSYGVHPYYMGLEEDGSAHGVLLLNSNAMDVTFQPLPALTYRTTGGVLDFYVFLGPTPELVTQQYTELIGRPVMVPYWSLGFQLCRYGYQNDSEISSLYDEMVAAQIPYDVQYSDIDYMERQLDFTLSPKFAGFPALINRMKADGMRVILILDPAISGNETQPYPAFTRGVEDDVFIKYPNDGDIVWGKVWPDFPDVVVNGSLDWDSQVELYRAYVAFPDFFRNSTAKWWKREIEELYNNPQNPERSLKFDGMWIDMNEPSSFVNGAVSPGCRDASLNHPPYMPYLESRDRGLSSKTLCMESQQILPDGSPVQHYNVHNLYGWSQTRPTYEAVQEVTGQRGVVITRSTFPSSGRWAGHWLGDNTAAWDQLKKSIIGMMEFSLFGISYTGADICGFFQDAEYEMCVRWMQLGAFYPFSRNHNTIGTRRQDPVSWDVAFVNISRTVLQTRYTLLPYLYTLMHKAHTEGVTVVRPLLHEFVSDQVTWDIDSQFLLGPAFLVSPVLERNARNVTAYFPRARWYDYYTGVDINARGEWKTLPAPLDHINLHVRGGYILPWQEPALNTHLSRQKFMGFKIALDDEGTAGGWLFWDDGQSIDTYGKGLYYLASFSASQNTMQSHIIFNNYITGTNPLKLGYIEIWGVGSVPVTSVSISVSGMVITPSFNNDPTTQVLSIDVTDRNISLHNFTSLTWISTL

OC[C@H]1NC[C@@H](O)[C@H](O)[C@H]1O
not listed: [5]
< 50%: all other assays above

OC[C@H]1NC[C@H](O)[C@@H](O)[C@@H]1O [DUVOGLUSTAT]
< 50%: [1] | [2] | [4]

OC[C@@H]1NC[C@@H](O)[C@@H](O)[C@@H]1O
not listed: [1]
< 50%: all other assays above

OC[C@H]1NC[C@H](O)[C@H](O)[C@H]1O
< 50%: all assays above

OC[C@H]1NC[C@H](O)[C@@H](O)[C@H]1O
not listed: [4]
< 50%: all other assays above

OC[C@@H]1NC[C@@H](O)[C@@H](O)[C@H]1O
not listed: [2]
< 50%: all other assays above

OC[C@@H]1NC[C@H](O)[C@@H](O)[C@@H]1O
< 50%: all assays above

OC[C@@H]1NC[C@@H](O)[C@H](O)[C@@H]1O
< 50%: [2] | [3] | [4]

OC[C@H]1NC[C@H](O)[C@H](O)[C@@H]1O
not listed: [1]
< 50%: all other assays above

OC[C@@H]1NC[C@@H](O)[C@H](O)[C@H]1O
not listed: [5]
< 50%: all other assays above

OC[C@H]1NC[C@@H](O)[C@@H](O)[C@@H]1O [DEOXYMANNOJIRIMYCIN]
not listed: [1]
< 50%: all other assays above

OC[C@@H]1NC[C@H](O)[C@H](O)[C@H]1O
< 50%: all assays above
